# Tested on: mutant Huntington (HTT) protein
# Test: HTT Mutant HTRF iPSC assay (mHTT protein lowering)
# Format: cell-based
# Details: human iPSC derived from a HTT patient with a poly-Q49 mutation
row,Structure (SMILES),IC50
1,"Cc1cn2nc(-c3cc(F)c4nc(C5CCNC6(CC6)C5)cn4c3)cc(C)c2n1 (stereo not shown) [Compound 110, 6-(8-fluoro-2-(4-azaspiro[2.5]octan-7-yl)imidazo[1,2-a]pyridin-6-yl)-2,8-dimethylimidazo[1,2-b]pyridazine]",< 100 nM
2,"Cc1cn2nc(-c3cc(F)c4nc(C5CCN(C)CC5)cn4c3)cc(C)c2n1 [Compound 111, 6-(8-fluoro-2-(1-methylpiperidin-4-yl)imidazo[1,2-a]pyridin-6-yl)-2,8-dimethylimidazo[1,2-b]pyridazine]",< 100 nM
3,"CCN1CCC(c2cn3cc(-c4cc(C)c5nc(C)cn5n4)cc(F)c3n2)CC1 [Compound 112, 6-(2-(1-ethylpiperidin-4-yl)-8-fluoroimidazo[1,2-a]pyridin-6-yl)-2,8-dimethylimidazo[1,2-b]pyridazine]",< 100 nM
4,"Cc1cn2nc(-c3cc(F)c4nc(C5CCN(C6CC6)CC5)cn4c3)cc(C)c2n1 [Compound 113, 6-[2-(1-cyclopropyl-4-piperidyl)-8-fluoro-imidazo[1,2-a]pyridin-6-yl]-2,8-dimethyl-imidazo[1,2-b]pyridazine]",< 100 nM
5,"CCC(=O)N1CCC(c2cn3cc(-c4cc(C)c5nc(C)cn5n4)cc(F)c3n2)CC1 [Compound 120, 1-[4-[6-(2,8-dimethylimidazo[1,2-b]pyridazin-6-yl)-8-fluoro-imidazo[1,2-a]pyridin-2-yl]-1-piperidyl]propan-1-one]",100 to 1000 nM
6,"Cc1cn2nc(-c3cc(F)c4nc(C5CCN(C(=O)C6CC6)CC5)cn4c3)cc(C)c2n1 [Compound 121, cyclopropyl(4-(6-(2,8-dimethylimidazo[1,2-b]pyridazin-6-yl)-8-fluoroimidazo[1,2-a]pyridin-2-yl)piperidin-1-yl)methanone]",100 to 1000 nM
7,"Fc1ccc2nc(-c3cc(F)c4nc(C5CCNCC5)cn4c3)cn2c1 [Compound 122, 6,8′-difluoro-2′-(piperidin-4-yl)-2,6′-biimidazo[1,2-a]pyridine]",1000 to 9000 nM
8,"Cc1nc2c(C)cc(-c3cc(F)c4nc(C5CCNCC5)cn4c3)cn2n1 [Compound 123, 6-(8-fluoro-2-(piperidin-4-yl)imidazo[1,2-a]pyridin-6-yl)-2,8-dimethyl-[1,2,4]triazolo[1,5-a]pyridine]",100 to 1000 nM
9,"Fc1cc(F)c2nc(-c3cc(F)c4nc(C5CCNCC5)cn4c3)oc2c1 [Compound 124, 4,6-difluoro-2-(8-fluoro-2-(piperidin-4-yl)imidazo[1,2-a]pyridin-6-yl)benzo[d]oxazole]",1000 to 9000 nM
10,"Cc1cn2cc(-c3cc(F)c4nc(C5CCNCC5)cn4c3)nc(C)c2n1 [Compound 125, 6-(8-fluoro-2-(piperidin-4-yl)imidazo[1,2-a]pyridin-6-yl)-2,8-dimethylimidazo[1,2-a]pyrazine]",100 to 1000 nM
11,"Cc1cn2nc(-c3cc(F)c4nc(C5CCNCC5)c(Cl)n4c3)ccc2n1 [Compound 126, 6-[3-chloro-8-fluoro-2-(4-piperidyl)imidazo[1,2-a]pyridin-6-yl]-2-methyl-imidazo[1,2-b]pyridazine]",< 100 nM
12,"Cc1cn2nc(-c3cc(F)c4nc(N5CCNCC5)cn4c3)cc(C)c2n1 [Compound 127, 6-(8-fluoro-2-piperazin-1-yl-imidazo[1,2-a]pyridin-6-yl)-2,8-dimethyl-imidazo[1,2-b]pyridazine]",1000 to 9000 nM
13,"CN1CCC(N(C)C(=O)c2cn3cc(-c4cc(F)c5nn(C)cc5c4)cc(F)c3n2)CC1 [Compound 129, 8-fluoro-6-(7-fluoro-2-methyl-indazol-5-yl)-N-methyl-N-(1-methyl-4-piperidyl)imidazo[1,2-a]pyridine-2-carboxamide]",1000 to 9000 nM
14,Cc1cn2nc(-c3cn4cc(C5CC6CCC(C5)N6)cc(F)c4n3)cc(C)c2n1 (stereo not shown) [Compound 130],1000 to 9000 nM
15,"Cc1cn2nc(-c3cn4cc(C5CCNCC5)cc(F)c4n3)cc(C)c2n1 [Compound 131, 6-(8-fluoro-6-(piperidin-4-yl)imidazo[1,2-a]pyridin-2-yl)-2,8-dimethylimidazo[1,2-b]pyridazine]",100 to 1000 nM
16,CCN1CCC(c2cc(F)c3nc(-c4cc(C)c5nc(C)cn5n4)cn3c2)CC1 [Compound 132],1000 to 9000 nM
17,"Cc1cn2nc(-c3cn4cc(C5CCN(C)CC5)cc(F)c4n3)cc(C)c2n1 [Compound 133, 6-[8-fluoro-6-(1-methyl-4-piperidyl)imidazo[1,2-a]pyridin-2-yl]-2,8-dimethyl-imidazo[1,2-b]pyridazine]",1000 to 9000 nM
18,"Cc1cn2nc(-c3cn4cc(C5CCCNC5)cc(F)c4n3)cc(C)c2n1 (stereo not shown) [Compound 134, 6-(8-fluoro-6-(piperidin-3-yl)imidazo[1,2-a]pyridin-2-yl)-2,8-dimethylimidazo[1,2-b]pyridazine]",1000 to 9000 nM
19,"Cc1cn2nc(-c3cc(F)c4cn(C5CCNCC5)nc4c3)cc(C)c2n1 [Compound 135, 6-(4-fluoro-2-(piperidin-4-yl)-2H-indazol-6-yl)-2,8-dimethylimidazo[1,2-b]pyridazine]",100 to 1000 nM
20,"Cc1cn2cc(-c3cc(F)c4nn(C5CCNCC5)cc4c3)cc(F)c2n1 [Compound 136, 7-fluoro-5-(8-fluoro-2-methylimidazo[1,2-a]pyridin-6-yl)-2-(piperidin-4-yl)-2H-indazole]",100 to 1000 nM

row,Structure (SMILES),IC50
1,"Cc1cn2cc(-c3cc(F)c4nn(C5CCNCC5)nc4c3)cc(F)c2n1 [Compound 137, 4-fluoro-6-(8-fluoro-2-methylimidazo[1,2-a]pyridin-6-yl)-2-(piperidin-4-yl)-2H-benzo[d][1,2,3]triazole]",100 to 1000 nM
2,"Cn1cc2cc(-c3cc(F)c4nn(C5CCNCC5)nc4c3)cc(F)c2n1 [Compound 138, 4-fluoro-6-(7-fluoro-2-methyl-2H-indazol-5-yl)-2-(piperidin-4-yl)-2H-benzo[d][1,2,3]triazole]",100 to 1000 nM
3,"Cc1cn2nc(-c3cc(F)c4nn(C5CCNCC5)nc4c3)cc(C)c2n1 [Compound 139, 6-(2,8-dimethylimidazo[1,2-b]pyridazin-6-yl)-4-fluoro-2-(piperidin-4-yl)-2H-benzo[d][1,2,3]triazole]",< 100 nM
4,"Cc1cn2nc(-c3cc(F)c4[nH]c(C5CCNCC5)nc4c3)cc(C)c2n1 [Compound 140, 6-(7-fluoro-2-(piperidin-4-yl)-1H-benzo[d]imidazol-5-yl)-2,8-dimethylimidazo[1,2-b]pyridazine]",< 100 nM
5,"Cn1cc2cc(-c3cc(F)c4[nH]c(C5CCNCC5)nc4c3)cc(F)c2n1 [Compound 141, 7-fluoro-5-(7-fluoro-2-(piperidin-4-yl)-1H-benzo[d]imidazol-5-yl)-2-methyl-2H-indazole]",1000 to 9000 nM
6,"Cc1cc(-c2cc(F)c3[nH]c(C4CCNCC4)nc3c2)cc2cn(C)nc12 [Compound 142, 5-(7-fluoro-2-(piperidin-4-yl)-1H-benzo[d]imidazol-5-yl)-2,7-dimethyl-2H-indazole]",1000 to 9000 nM
7,"Cc1cn2cc(-c3cc(F)c4[nH]c(C5CCNCC5)nc4c3)cc(F)c2n1 [Compound 143, 7-fluoro-5-(8-fluoro-2-methylimidazo[1,2-a]pyridin-6-yl)-2-(piperidin-4-yl)-1H-benzo[d]imidazole]",1000 to 9000 nM
8,"Cc1cn2cc(-c3cc(F)c4[nH]c(C5CCNCC5)nc4c3)cc(Cl)c2n1 [Compound 144, 5-(8-chloro-2-methylimidazo[1,2-a]pyridin-6-yl)-7-fluoro-2-(piperidin-4-yl)-1H-benzo[d]imidazole]",1000 to 9000 nM
9,"Cc1cn2cc(-c3cc(F)c4[nH]c(C5CCNCC5)nc4c3)cc2c(C)n1 [Compound 145, 5-(1,3-dimethylpyrrolo[1,2-a]pyrazin-7-yl)-7-fluoro-2-(piperidin-4-yl)-1H-benzo[d]imidazole]",1000 to 9000 nM
10,"Cn1nc2ccc(-c3cc(F)c4[nH]c(C5CCNCC5)nc4c3)cc2n1 [Compound 146, 5-(7-fluoro-2-(piperidin-4-yl)-1H-benzo[d]imidazol-5-yl)-2-methyl-2H-benzo[d][1,2,3]triazole]",1000 to 9000 nM
11,"Cc1cn2cc(-c3cc(F)c4[nH]c(C5CCNCC5)nc4c3)cc(C)c2n1 [Compound 147, 5-(2,8-dimethylimidazo[1,2-a]pyridin-6-yl)-7-fluoro-2-(piperidin-4-yl)-1H-benzo[d]imidazole]",1000 to 9000 nM
12,"Cn1nc2cc(-c3cc(F)c4[nH]c(C5CCNCC5)nc4c3)cc(F)c2n1 [Compound 148, 4-fluoro-6-(7-fluoro-2-(piperidin-4-yl)-1H-benzo[d]imidazol-5-yl)-2-methyl-2H-benzo[d][1,2,3]triazole]",100 to 1000 nM
13,"Cc1nc2c(F)cc(-c3cc(F)c4[nH]c(C5CCNCC5)nc4c3)cn2n1 [Compound 149, 8-fluoro-6-(7-fluoro-2-(piperidin-4-yl)-1H-benzo[d]imidazol-5-yl)-2-methyl-[1,2,4]triazolo[1,5-a]pyridine]",1000 to 9000 nM
14,"Cc1cn2nc(-c3cc(F)c4nc(C5CCNCC5)nn4c3)cc(C)c2n1 [Compound 150, 6-(2,8-dimethylimidazo[1,2-b]pyridazin-6-yl)-8-fluoro-2-(4-piperidyl)-[1,2,4]triazolo[1,5-a]pyridine]",< 100 nM
15,"Cc1cn2cc(-c3cc(F)c4nc(C5CCNCC5)nn4c3)cc(F)c2n1 [Compound 151, 8-fluoro-6-(8-fluoro-2-methylimidazo[1,2-a]pyridin-6-yl)-2-(piperidin-4-yl)-[1,2,4]triazolo[1,5-a]pyridine]",1000 to 9000 nM
16,CCc1nc(C)cn2cc(-c3cc(F)c4nc(C5CCNCC5)nn4c3)cc12 [Compound 152],< 100 nM
17,"Cc1cn2nc(-c3cc(F)c4nc(C5CCNCC5)cn4c3)cc(C(F)F)c2n1 [Compound 153, 8-(difluoromethyl)-6-(8-fluoro-2-(piperidin-4-yl)imidazo[1,2-a]pyridin-6-yl)-2-methylimidazo[1,2-b]pyridazine]",< 100 nM
18,"Cc1cn2nc(-c3cc(F)c4nc(C5CCNCC5)oc4c3)cc(C)c2n1 [Compound 154, 6-(2,8-dimethylimidazo[1,2-b]pyridazin-6-yl)-4-fluoro-2-(4-piperidyl)-1,3-benzoxazole]",< 100 nM
19,"Cc1cn2cc(-c3cc(F)c4nc(C5CCNCC5)oc4c3)cc(C)c2n1 [Compound 155, 6-(2,8-dimethylimidazo[1,2-a]pyridin-6-yl)-4-fluoro-2-(piperidin-4-yl)benzo[d]oxazole]",1000 to 9000 nM
20,"Cc1cn2cc(-c3cc(F)c4nc(C5CCNCC5)oc4c3)cc(F)c2n1 [Compound 156, 4-fluoro-6-(8-fluoro-2-methylimidazo[1,2-a]pyridin-6-yl)-2-(piperidin-4-yl)benzo[d]oxazole]",1000 to 9000 nM

# Source: patent US20250353841A1 (BIOGEN MA INC., priority 2022, published 2025)
